According to PubChem BioAssay (NCI):
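Dose response: 5 concentrations. Exposure: 48 h. Format: 96-well plates. Endpoint: linear interpolation; highest concentration if not reached. At the GI50, growth is halved. TGI is the concentration that stops growth completely.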

Key:
Assay in all cases: growth of human tumour cells (NCI), 48 h
[1] = tested on: CCRF-CEM leukemia
[2] = tested on: HS 578T breast
[3] = tested on: M14 melanoma
[4] = tested on: MCF7 breast
[5] = tested on: NCI-H226 lung
[6] = tested on: NCI-H522 lung
[7] = tested on: SF-295 CNS
[8] = tested on: SK-MEL-28 melanoma
[9] = tested on: SN12C renal
[10] = tested on: T-47D breast

Compound | GI50 [1] | TGI [1] | GI50 [2] | TGI [2] | GI50 [3] | TGI [3] | GI50 [4] | TGI [4] | GI50 [5] | TGI [5] | GI50 [6] | TGI [6] | GI50 [7] | TGI [7] | GI50 [8] | TGI [8] | GI50 [9] | TGI [9] | GI50 [10] | TGI [10]
COc1nc(C)cc2c(=O)n(-c3ccccc3)n(CC(O)CN3CCN(c4ccc(Cl)cc4)CC3)c(=O)c12 (stereo not given) | > 50 µM | > 50 µM | 18.8 µM | > 50 µM | > 50 µM | > 50 µM | 46.1 µM | > 50 µM | > 50 µM | > 50 µM | 25.8 µM | > 50 µM | 36.4 µM | > 50 µM | > 50 µM | > 50 µM | > 50 µM | > 50 µM | > 50 µM | > 50 µM
O=C(O)c1cccc(/C=C/c2ccccc2)c1 | – | > 100 µM | – | > 100 µM | – | > 100 µM | – | > 100 µM | – | > 100 µM | – | > 100 µM | – | > 100 µM | – | > 100 µM | – | > 100 µM | – | > 100 µM
COC(=O)[C@H]1[C@H]2C[C@@H]3c4[nH]c5cc(OC)ccc5c4CCN3C[C@H]2C[C@@H](OC(=O)/C=C/c2cc(OC)c(OC)c(OC)c2)[C@@H]1OC | 1.48 µM | 5.62 µM | 5.77 µM | 39.5 µM | 6.24 µM | 20 µM | 4.75 µM | 23 µM | 26.7 µM | > 100 µM | 10.4 µM | 27 µM | 5.54 µM | 24.9 µM | 12.6 µM | 28 µM | 4.56 µM | > 100 µM | 3.15 µM | 9.54 µM
Nc1nc(N)nc(CC(=O)O)n1 | – | > 100 µM | – | > 100 µM | – | > 100 µM | – | > 100 µM | – | > 100 µM | – | > 100 µM | – | > 100 µM | – | > 100 µM | – | > 100 µM | – | > 100 µM
Cc1cc(=O)oc2cc(OC(=O)N(CCCl)CCCl)ccc12 | – | > 100 µM | – | > 100 µM | – | > 100 µM | – | > 100 µM | – | > 100 µM | – | > 100 µM | – | > 100 µM | – | > 100 µM | – | > 100 µM | – | > 100 µM
Clc1ccc2ns[s+]c2c1 | – | > 81.9 µM | – | > 100 µM | – | > 100 µM | – | > 100 µM | – | > 100 µM | – | > 100 µM | – | > 100 µM | – | > 100 µM | – | > 100 µM | – | 92 µM
